Patent US9714244B2, “Substituted pyrido[4,3-d]pyrimidines as Wee-1 inhibitors” (ALMAC DISCOVERY LIMITED, priority 2013, dated 2017)

Tests used:
[1] = molecular target: AURKA (Aurora A) (Homo sapiens (Human), UniProt O14965); assay: SelectScreen Kinase Profiling: AURKA; format: biochemical; conditions: 300-350 nM
Source text: (§1) Table 2 below highlights the selectivity of a representative compound of the invention against a panel of 50 kinases (assessed using the Invitrogen SelectScreen® Kinase Profiling Service).

[2] = molecular target: MAPK1 (ERK2) (Homo sapiens (Human), UniProt P28482); assay: SelectScreen Kinase Profiling: MAPK1; format: biochemical; conditions: 300-350 nM
Source text: as §1

[3] = molecular target: KDR (VEGFR2) (Homo sapiens (Human), UniProt P35968); assay: SelectScreen Kinase Profiling: KDR; format: biochemical; conditions: 300-350 nM
Source text: as §1

[4] = CLint estimates using human liver microsomes; format: in vitro ADME; conditions: pH 7.4, read-out: HLM activity (HLM CLint)
[5] = molecular target: CSNK2A1 (CK2 alpha 1) (Homo sapiens (Human), UniProt P68400); assay: SelectScreen Kinase Profiling: CSNK2A1; format: biochemical; conditions: 300-350 nM
Source text: as §1

[6] = molecular target: Src (Homo sapiens (Human), UniProt P12931); assay: SelectScreen Kinase Profiling: SRC; format: biochemical; conditions: 300-350 nM
[7] = molecular target: MAPKAPK2 (Homo sapiens (Human), UniProt P49137); assay: SelectScreen Kinase Profiling: MAPKAPK2; format: biochemical; conditions: 300-350 nM
Source text: as §1

[8] = molecular target: RPS6KA3 (RSK2) (Homo sapiens (Human), UniProt P51812); assay: SelectScreen Kinase Profiling: RPS6KA3; format: biochemical; conditions: 300-350 nM
[9] = molecular target: MET (cMet) (Homo sapiens (Human), UniProt P08581); assay: SelectScreen Kinase Profiling: MET; format: biochemical; conditions: 300-350 nM
Source text: as §1

[10] = molecular target: ROCK1 (Homo sapiens (Human), UniProt Q13464); assay: SelectScreen Kinase Profiling: ROCK1; format: biochemical; conditions: 300-350 nM
Source text: as §1

[11] = molecular target: GSK3B (GSK3 beta) (Homo sapiens (Human), UniProt P49841); assay: SelectScreen Kinase Profiling: GSK3B; format: biochemical; conditions: 300-350 nM
Source text: as §1

[12] = molecular target: CSNK1G2 (CK1 gamma 2) (Homo sapiens (Human), UniProt P78368); assay: SelectScreen Kinase Profiling: CSNK1G2; format: biochemical; conditions: 300-350 nM
Source text: as §1

[13] = molecular target: FLT3 (Homo sapiens (Human), UniProt P36888); assay: SelectScreen Kinase Profiling: FLT3; format: biochemical; conditions: 300-350 nM
Source text: as §1

[14] = molecular target: Wee-1 kinase (Homo sapiens (Human), UniProt P30291); assay: Measurement of Wee-1 kinase activity (ADP-Glo); format: biochemical; conditions: read-out: Wee-1 IC50 activity
[15] = molecular target: NTRK1 (TRKA) (Homo sapiens (Human), UniProt P04629); assay: SelectScreen Kinase Profiling: NTRK1; format: biochemical; conditions: 300-350 nM
Source text: as §1

Src, sequence (P12931 whole entry): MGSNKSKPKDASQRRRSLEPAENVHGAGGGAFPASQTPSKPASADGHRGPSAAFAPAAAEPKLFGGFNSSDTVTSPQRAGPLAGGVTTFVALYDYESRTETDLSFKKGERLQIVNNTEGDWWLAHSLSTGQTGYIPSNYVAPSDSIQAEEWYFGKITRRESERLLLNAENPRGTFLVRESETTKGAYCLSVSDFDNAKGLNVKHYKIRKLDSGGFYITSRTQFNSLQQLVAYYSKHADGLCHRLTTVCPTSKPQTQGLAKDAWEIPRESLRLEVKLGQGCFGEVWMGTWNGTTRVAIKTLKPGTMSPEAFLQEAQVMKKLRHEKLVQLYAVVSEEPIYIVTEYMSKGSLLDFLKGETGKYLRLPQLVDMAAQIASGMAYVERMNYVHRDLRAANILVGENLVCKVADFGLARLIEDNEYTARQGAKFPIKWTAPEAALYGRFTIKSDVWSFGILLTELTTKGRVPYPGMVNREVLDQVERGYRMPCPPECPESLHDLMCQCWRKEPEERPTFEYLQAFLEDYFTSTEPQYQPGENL
MAPK1 (ERK2), sequence (P28482 whole entry): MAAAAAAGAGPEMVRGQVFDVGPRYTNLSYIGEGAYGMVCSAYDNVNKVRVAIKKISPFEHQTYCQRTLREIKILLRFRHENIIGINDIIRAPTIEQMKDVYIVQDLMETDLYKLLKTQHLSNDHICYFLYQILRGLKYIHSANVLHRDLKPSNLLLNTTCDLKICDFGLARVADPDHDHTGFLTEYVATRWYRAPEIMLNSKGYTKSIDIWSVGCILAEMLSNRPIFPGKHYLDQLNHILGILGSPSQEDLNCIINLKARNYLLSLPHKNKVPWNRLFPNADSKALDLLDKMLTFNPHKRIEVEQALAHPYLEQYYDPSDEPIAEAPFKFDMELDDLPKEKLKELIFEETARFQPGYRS
GSK3B (GSK3 beta), sequence (P49841 whole entry): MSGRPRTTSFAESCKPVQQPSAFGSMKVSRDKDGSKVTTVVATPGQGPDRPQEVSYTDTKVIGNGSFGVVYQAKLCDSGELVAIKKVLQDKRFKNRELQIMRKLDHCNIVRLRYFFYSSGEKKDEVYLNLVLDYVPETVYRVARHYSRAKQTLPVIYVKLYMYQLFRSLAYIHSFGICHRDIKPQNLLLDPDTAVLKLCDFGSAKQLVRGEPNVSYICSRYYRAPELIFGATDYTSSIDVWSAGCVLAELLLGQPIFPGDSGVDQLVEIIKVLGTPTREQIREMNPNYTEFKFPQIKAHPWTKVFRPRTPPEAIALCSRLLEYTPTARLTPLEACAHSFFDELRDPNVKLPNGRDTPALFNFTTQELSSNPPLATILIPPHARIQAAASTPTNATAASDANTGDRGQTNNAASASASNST
CSNK1G2 (CK1 gamma 2), sequence (P78368 whole entry): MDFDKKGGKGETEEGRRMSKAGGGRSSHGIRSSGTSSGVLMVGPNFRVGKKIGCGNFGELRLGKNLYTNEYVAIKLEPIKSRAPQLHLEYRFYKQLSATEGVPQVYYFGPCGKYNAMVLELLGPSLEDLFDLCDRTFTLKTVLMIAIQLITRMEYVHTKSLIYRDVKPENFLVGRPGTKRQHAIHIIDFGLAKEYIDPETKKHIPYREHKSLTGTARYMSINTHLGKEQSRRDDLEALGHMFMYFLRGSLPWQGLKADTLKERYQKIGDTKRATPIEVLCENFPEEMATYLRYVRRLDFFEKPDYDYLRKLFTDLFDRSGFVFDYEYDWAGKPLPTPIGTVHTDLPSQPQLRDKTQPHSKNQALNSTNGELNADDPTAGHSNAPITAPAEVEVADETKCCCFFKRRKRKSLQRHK
Wee-1 kinase, sequence (P30291 whole entry): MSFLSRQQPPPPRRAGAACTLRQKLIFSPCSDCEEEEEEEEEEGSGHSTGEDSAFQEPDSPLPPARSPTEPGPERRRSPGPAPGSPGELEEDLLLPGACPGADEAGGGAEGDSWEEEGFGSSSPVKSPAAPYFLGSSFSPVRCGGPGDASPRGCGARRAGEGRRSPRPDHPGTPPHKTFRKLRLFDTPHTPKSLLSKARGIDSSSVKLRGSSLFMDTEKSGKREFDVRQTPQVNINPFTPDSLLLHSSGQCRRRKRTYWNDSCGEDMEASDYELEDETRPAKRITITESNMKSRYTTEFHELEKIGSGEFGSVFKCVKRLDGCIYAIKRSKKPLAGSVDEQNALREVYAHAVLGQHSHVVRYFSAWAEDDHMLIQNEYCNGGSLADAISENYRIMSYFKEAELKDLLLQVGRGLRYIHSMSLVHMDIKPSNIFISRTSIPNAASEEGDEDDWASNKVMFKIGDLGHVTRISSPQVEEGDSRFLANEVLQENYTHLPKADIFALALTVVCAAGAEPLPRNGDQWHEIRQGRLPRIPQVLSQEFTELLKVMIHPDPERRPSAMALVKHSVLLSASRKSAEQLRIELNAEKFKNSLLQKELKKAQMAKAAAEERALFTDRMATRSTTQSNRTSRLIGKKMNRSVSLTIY
NTRK1 (TRKA), sequence (P04629 33-796): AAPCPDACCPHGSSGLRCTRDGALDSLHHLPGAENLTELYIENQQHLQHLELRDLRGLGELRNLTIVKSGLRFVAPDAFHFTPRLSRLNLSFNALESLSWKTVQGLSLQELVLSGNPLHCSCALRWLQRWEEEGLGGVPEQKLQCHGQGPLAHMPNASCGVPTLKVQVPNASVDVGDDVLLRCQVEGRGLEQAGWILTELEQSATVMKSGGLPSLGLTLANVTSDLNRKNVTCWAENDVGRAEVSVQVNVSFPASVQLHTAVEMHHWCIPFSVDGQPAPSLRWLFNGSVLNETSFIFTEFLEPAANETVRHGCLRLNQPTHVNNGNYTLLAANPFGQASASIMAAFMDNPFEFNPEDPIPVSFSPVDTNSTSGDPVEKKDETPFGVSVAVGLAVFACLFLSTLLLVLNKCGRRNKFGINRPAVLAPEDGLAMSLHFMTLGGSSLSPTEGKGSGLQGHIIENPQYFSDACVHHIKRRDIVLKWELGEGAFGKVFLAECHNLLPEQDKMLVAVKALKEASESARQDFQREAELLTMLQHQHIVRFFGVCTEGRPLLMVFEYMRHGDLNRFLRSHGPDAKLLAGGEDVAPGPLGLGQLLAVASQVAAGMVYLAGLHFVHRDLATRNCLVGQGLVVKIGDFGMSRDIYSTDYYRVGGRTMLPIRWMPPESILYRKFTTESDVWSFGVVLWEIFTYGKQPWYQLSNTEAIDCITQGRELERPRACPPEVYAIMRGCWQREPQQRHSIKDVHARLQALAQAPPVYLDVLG
MAPKAPK2, sequence (P49137 whole entry): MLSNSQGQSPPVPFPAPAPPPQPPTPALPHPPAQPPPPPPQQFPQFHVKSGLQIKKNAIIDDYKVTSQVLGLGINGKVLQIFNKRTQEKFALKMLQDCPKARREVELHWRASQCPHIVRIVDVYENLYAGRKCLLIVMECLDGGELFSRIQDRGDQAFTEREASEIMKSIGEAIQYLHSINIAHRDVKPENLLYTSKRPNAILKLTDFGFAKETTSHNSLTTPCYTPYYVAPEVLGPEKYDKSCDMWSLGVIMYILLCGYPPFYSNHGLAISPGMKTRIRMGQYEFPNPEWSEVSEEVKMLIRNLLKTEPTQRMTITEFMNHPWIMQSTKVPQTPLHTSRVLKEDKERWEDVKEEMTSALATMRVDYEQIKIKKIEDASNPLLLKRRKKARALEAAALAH
MET (cMet), sequence (P08581 25-1390): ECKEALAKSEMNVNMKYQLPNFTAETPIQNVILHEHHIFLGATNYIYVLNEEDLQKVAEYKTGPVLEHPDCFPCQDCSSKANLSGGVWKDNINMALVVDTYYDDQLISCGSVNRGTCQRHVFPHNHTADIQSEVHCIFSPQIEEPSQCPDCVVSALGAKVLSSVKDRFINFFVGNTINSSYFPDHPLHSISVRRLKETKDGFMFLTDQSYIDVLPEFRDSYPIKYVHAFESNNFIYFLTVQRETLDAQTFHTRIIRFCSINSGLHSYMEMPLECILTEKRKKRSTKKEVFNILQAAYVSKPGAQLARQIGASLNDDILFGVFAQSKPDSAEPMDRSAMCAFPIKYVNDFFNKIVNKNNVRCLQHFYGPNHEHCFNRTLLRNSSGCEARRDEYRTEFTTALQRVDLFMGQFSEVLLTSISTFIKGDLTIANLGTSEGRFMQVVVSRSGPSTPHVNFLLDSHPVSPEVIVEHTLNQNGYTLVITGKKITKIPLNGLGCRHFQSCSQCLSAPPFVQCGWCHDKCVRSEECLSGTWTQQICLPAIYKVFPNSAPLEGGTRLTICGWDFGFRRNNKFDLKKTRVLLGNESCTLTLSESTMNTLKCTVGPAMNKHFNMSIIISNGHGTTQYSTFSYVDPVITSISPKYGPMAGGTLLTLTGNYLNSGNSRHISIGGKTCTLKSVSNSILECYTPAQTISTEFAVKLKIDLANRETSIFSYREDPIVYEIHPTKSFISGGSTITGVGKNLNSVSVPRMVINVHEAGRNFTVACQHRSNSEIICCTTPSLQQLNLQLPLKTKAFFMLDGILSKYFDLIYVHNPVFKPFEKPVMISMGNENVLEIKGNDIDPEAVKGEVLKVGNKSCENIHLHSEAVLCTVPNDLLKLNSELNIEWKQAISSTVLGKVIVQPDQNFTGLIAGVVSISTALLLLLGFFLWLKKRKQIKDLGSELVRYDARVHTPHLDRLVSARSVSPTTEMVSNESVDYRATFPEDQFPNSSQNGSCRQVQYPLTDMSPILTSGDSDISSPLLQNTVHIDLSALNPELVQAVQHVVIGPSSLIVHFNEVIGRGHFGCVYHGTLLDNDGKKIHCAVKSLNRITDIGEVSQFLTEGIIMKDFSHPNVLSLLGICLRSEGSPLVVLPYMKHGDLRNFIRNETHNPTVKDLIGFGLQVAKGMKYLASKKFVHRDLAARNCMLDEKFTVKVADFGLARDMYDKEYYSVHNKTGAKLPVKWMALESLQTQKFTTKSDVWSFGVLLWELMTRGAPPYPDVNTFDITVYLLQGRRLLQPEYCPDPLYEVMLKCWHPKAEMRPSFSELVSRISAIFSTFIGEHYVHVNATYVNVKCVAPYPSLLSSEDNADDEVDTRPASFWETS

O=c1c2cnc(Nc3ccc(N4CCNCC4)cc3)nc2ccn1-c1c(Cl)cccc1Cl [Example 1, 6-(2,6-Dichlorophenyl)-2-((4-(piperazin-1-yl)phenyl)amino)pyrido[4,3-d]pyrimidin-5(6H)-one]
Inhibition AURKA (Aurora A) [1]: − (Inhibition <75% @ 300-350 nM)
Inhibition MAPK1 (ERK2) [2]: − (Inhibition <75% @ 300-350 nM)
Inhibition KDR (VEGFR2) [3]: − (Inhibition <75% @ 300-350 nM)
microsomal CLint at 1 μM [4]: ≤ 20 µL/min/mg
Inhibition CSNK2A1 (CK2 alpha 1) [5]: − (Inhibition <75% @ 300-350 nM)
Inhibition SRC [6]: − (Inhibition <75% @ 300-350 nM)
Inhibition MAPKAPK2 [7]: − (Inhibition <75% @ 300-350 nM)
Inhibition RPS6KA3 (RSK2) [8]: − (Inhibition <75% @ 300-350 nM)
Inhibition MET (cMet) [9]: − (Inhibition <75% @ 300-350 nM)
Inhibition ROCK1 [10]: − (Inhibition <75% @ 300-350 nM)
Inhibition GSK3B (GSK3 beta) [11]: − (Inhibition <75% @ 300-350 nM)
Inhibition CSNK1G2 (CK1 gamma 2) [12]: − (Inhibition <75% @ 300-350 nM)
Inhibition FLT3 [13]: − (Inhibition <75% @ 300-350 nM)
IC50 [14]: 10 to 200 nM
Inhibition NTRK1 (TRKA) [15]: − (Inhibition <75% @ 300-350 nM)
